SMILES strings stand for the structures.

Series [1] has as its target Aldo-keto reductase family 1 member B1 (Homo sapiens, UniProt P15121). Kind of series: Inhibition of human ALR2.
The nature of series [2]: Lipophilicity, log D of the compound. In kind it is physicochemical. The following applies: octanol/water.
For series [3], the target named is ALK tyrosine kinase receptor (Homo sapiens, UniProt Q9UM73, L1196M). Description: Inhibition of ALK L1196M mutant (unknown origin).
Chain of ALK tyrosine kinase receptor (Q9UM73 19-1620 L1196M limits assumed): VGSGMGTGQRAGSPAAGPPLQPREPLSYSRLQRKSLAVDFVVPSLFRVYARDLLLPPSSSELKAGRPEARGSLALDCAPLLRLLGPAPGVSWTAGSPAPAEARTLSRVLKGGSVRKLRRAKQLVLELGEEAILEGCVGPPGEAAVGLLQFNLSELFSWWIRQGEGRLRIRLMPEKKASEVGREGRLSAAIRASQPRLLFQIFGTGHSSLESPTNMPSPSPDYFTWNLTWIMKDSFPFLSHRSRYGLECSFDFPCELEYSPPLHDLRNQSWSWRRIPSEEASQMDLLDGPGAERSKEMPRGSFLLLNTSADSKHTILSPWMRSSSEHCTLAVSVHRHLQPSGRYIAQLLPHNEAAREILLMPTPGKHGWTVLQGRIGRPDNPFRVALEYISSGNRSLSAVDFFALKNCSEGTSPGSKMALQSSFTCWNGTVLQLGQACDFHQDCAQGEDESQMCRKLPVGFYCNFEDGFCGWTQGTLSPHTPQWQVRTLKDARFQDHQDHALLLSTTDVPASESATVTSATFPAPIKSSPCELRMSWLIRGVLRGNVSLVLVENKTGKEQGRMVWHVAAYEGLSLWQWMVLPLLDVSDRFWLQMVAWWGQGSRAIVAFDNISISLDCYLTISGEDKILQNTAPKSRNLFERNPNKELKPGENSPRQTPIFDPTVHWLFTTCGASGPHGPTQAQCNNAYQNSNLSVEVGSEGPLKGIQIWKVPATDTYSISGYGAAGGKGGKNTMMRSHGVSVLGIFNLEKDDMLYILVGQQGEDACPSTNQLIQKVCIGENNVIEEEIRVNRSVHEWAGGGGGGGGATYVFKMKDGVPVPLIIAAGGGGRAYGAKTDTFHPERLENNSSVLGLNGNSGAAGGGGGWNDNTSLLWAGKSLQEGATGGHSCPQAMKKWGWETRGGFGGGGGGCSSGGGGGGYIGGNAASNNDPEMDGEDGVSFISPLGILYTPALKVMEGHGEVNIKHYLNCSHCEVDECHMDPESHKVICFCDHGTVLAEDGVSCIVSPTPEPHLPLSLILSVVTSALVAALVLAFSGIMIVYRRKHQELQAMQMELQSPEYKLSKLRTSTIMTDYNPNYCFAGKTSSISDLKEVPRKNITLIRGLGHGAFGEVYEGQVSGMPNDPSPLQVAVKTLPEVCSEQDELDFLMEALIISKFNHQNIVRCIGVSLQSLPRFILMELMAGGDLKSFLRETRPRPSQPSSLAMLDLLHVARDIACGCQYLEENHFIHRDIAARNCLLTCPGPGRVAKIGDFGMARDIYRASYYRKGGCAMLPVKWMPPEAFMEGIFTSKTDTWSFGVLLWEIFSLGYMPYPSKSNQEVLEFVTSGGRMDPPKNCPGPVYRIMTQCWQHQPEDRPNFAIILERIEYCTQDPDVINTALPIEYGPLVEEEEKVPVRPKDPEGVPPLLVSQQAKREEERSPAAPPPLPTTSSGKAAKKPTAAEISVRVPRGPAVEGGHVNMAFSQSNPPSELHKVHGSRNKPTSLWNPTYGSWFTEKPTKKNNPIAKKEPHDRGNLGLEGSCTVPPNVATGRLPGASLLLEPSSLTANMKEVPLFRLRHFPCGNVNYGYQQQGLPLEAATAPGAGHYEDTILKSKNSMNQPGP

One may read the IC50 as the concentration at which inhibition is half-maximal. A high value points to weaker potency. In the case of `O=C(O)COc1cc(Cl)ccc1C(=O)NCc1ccc(Br)cc1`, the IC50 in series [1] stood at 550 nM.
By logD is commonly meant lipophilicity at a set pH, counting ionised and neutral species. One may read the Ki as the dissociation constant of the complex between target and ligand, obtained from inhibition or displacement. A low value points to tighter binding. In series [2], `C[C@H]1Oc2cc(cnc2N)-c2c(nn(C)c2C#N)CN(C)C(=O)c2ccccc21` yielded a pH-dependent lipophilicity (logD) of 2.2. The compound also came in with an inhibition constant Ki in series [3] of 4 nM.

The values above are taken from ChEMBL document CHEMBL4118113, “Lipophilic Efficiency as an Important Metric in Drug Design” (J Med Chem, 2018).
